How the values were obtained:
[1] = refractive index (Na D-line) (dimensionless); conditions: 298.15 K; 100 kPa; Liquid; Standard Abbe refractometry
[2] = refractive index (Na D-line) (dimensionless); wn = mass fraction of the nth substance listed; conditions: 298.15 K, 100 kPa, Liquid, Standard Abbe refractometry
[3] = wn = mass fraction of the nth substance listed; conditions: 298.15 K, 100 kPa, Liquid, Vibrating tube method
[4] = mn = molality of the nth substance listed, in mol/kg; conditions: 298.15 K, 100 kPa, Liquid, Alternating current cell with electrodes

O [water]
Conditions | refractive index
[1] | 1.3325

CCCCn1cc[n+](C)c1.N[C@@H](CCC(=O)O)C(=O)[O-] [1-butyl-3-methylimidazolium (S)-2-amino-4-carboxybutanoate] + O
Conditions | electrical conductivity [S/m] | mass density [kg/m3] | refractive index
[2], w1 = 0.05 | – | – | 1.3448
[2], w1 = 0.103 | – | – | 1.3584
[2], w1 = 0.152 | – | – | 1.3724
[2], w1 = 0.2 | – | – | 1.3838
[2], w1 = 0.299 | – | – | 1.4025
[2], w1 = 0.377 | – | – | 1.4179
[2], w1 = 0.492 | – | – | 1.4473
[2], w1 = 0.576 | – | – | 1.4684
[3], w1 = 0.111 | – | 1022.7 | –
[3], w1 = 0.183 | – | 1038.8 | –
[3], w1 = 0.273 | – | 1058.6 | –
[3], w1 = 0.353 | – | 1075.4 | –
[3], w1 = 0.42 | – | 1091 | –
[3], w1 = 0.491 | – | 1105.2 | –
[3], w1 = 0.561 | – | 1122.2 | –
[3], w1 = 0.628 | – | 1136.6 | –
[3], w1 = 0.717 | – | 1153.7 | –
[3], w1 = 0.773 | – | 1167.1 | –
[3], w1 = 0.836 | – | 1181.6 | –
[3], w1 = 0.863 | – | 1185.8 | –
[4], m1 = 0.061 | 0.277 | – | –
[4], m1 = 0.101 | 0.364 | – | –
[4], m1 = 0.142 | 0.466 | – | –
[4], m1 = 0.196 | 0.577 | – | –
[4], m1 = 0.253 | 0.676 | – | –
[4], m1 = 0.361 | 0.869 | – | –
[4], m1 = 0.439 | 1.01 | – | –
[4], m1 = 0.541 | 1.13 | – | –
[4], m1 = 0.628 | 1.205 | – | –
[4], m1 = 0.715 | 1.27 | – | –
[4], m1 = 0.848 | 1.37 | – | –
[4], m1 = 0.963 | 1.431 | – | –

CCCCCCCC[n+]1ccn(C)c1.[Cl-] [1-methyl-3-octylimidazolium chloride] + O
[4]
Conditions | electrical conductivity [S/m]
m1 = 0.03 | 0.245
m1 = 0.06 | 0.425
m1 = 0.124 | 0.712
m1 = 0.18 | 0.901
m1 = 0.242 | 1.03
m1 = 0.284 | 1.1
m1 = 0.319 | 1.123
m1 = 0.352 | 1.18
m1 = 0.389 | 1.204
m1 = 0.421 | 1.228
m1 = 0.48 | 1.26
m1 = 0.51 | 1.28
m1 = 0.541 | 1.301
